The values that follow come from US9326953B2, “Method and system for systemic delivery of growth arresting, lipid-derived bioactive compounds” (priority 2003, dated 2016).

The subject of series [1] is MDA cells. Briefly: [3H]thymidine cell proliferation assay. The series is classed as cell-based, Human. The settings on record: [3H]thymidine incorporation, 10% FBS for 12 h of treatment; read-out: IC50 of C6, inhibition of MDA cell proliferation. Here is the method: To determine the utility of conventional lipid formulations for the delivery of short-chain ceramide to MDA cells, a [^3H]thymidine proliferation assay was performed. Briefly, MDA cells were seeded at 3.5×10^4 cells/well in 24-well plates and grown overnight prior to 24 h of serum starvation. At hour 12 of serum starvation, cells were treated with liposomal or nonliposomal C6 for the remainder of serum starvation. Following serum starvation, media was then supplemented with FBS (10% final concentration) for an additional 12 h, and cellular proliferation was assayed with the addition of 0.5 mCi/ml [^3H]thymidine for the final 4 h of treatment. Cells were washed once with cold PBS and then twice with 10% trichloric acetic acid for 10 min. Cells were solubilized with 0.3 N NaOH, and [^3H]thymidine incorporation into acid-insoluble DNA was assessed with a scintillation counter.

Series [2] relates to MDA cells. Kind of series: TUNEL staining of cleaved DNA. The format is cell-based, Human. As for the experimental part: An investigation to determine whether C6-dependent growth inhibition correlates with enhanced apoptosis was undertaken. To confirm that C6 delivery leads to MDA cell apoptosis, TUNEL analysis (Upstate Biotechnology, Lake Placid, N.Y.) was performed, which stains cleaved DNA, a hallmark of cellular apoptosis (FIG. 7A).

Series [3] is described as follows: Toxicity after intravenous injection. The format is in vivo. The settings on record: injection at 10 mg/kg.

SMILES strings stand for the structures.

Regarding `CCCCCCCCCCCCC/C=C/[C@@H](O)[C@H](CO)NC(=O)CCCCC` [nonliposomal C6, D-erythro-hexanoyl-sphingosine], the IC50 with MDA cells [1] was 15 µM. Besides, the “DNA fragmentation (TUNEL) at 16 h” value with MDA cells [2] (20 μM, 16 h of treatment) was “induced DNA fragmentation”. In addition, the “DNA fragmentation (TUNEL) at 8 h” value with MDA cells [2] (cycling, serum-fed MDA cells, 8 h) is listed as “no DNA fragmentation”. For the same compound, the mice killed in series [3] was 50%.
